These are literature values, as cited in patent publication US9387169B2, “Rapamycin powders for pulmonary delivery” (Civitas Therapeutics, Inc., priority 2014, dated 2016).

The conditions of the series: amorphous form.

As to `CO[C@H]1C[C@@H]2CC[C@@H](C)[C@@](O)(O2)C(=O)C(=O)N2CCCC[C@H]2C(=O)O[C@H]([C@H](C)C[C@@H]2CC[C@@H](O)[C@H](OC)C2)CC(=O)[C@H](C)/C=C(\C)[C@@H](O)[C@@H](OC)C(=O)[C@H](C)C[C@H](C)/C=C/C=C/C=C/1C` [amorphous rapamycin, rapamycin], the chemical stability entry is “extremely chemically unstable”.
